Data from the supplement of paper PMC5908809.

Columns and labels:
[1] = tested on: normal NK cells expanded with K562-aAPC; assay: percent inhibition of viability; higher = more inhibition; settings: 72 h, IL-2 2.5 ng/mL
Procedure: (§1)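 Drug sensitivity and resistance testing on K562-aAPC-expanded normal NK cells: 5 concentrations (10-fold steps over a 10,000-fold range), 72 h at 37 °C, viability by CellTiter-Glo normalised to DMSO and benzethonium chloride controls; DSS from the fitted curve.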

[2] = tested on: DERL-7 (IL-2 2.5 ng/mL); assay: as above; settings: 72 h
[3] = tested on: IMC-1 (IL-2 20 ng/mL); assay: as above; settings: 72 h
[4] = tested on: KAI3 (IL-2 2.5 ng/mL); assay: as above; settings: 72 h
[5] = tested on: KHYG-1 (IL-2 2.5 ng/mL); assay: as above; settings: 72 h
[6] = tested on: NK-92 (IL-2 2.5 ng/mL); assay: as above; settings: 72 h
[7] = tested on: NK-YS (IL-2 2.5 ng/mL); assay: as above; settings: 72 h
[8] = tested on: NKL (IL-2 2.5 ng/mL); assay: as above; settings: 72 h
[9] = tested on: SNK-6 (IL-2 2.5 ng/mL); assay: as above; settings: 72 h
[10] = tested on: YT (IL-2 2.5 ng/mL); assay: as above; settings: 72 h
[11] = tested on: normal primary NK cells, pool 1 (3 donors) (IL-2 2.5 ng/mL); assay: as above; settings: 72 h
[12] = tested on: normal primary NK cells, pool 1 (3 donors), resting (IL-2 0 ng/mL); assay: as above; settings: 72 h
[13] = tested on: normal primary NK cells, pool 2 (3 donors) (IL-2 2.5 ng/mL); assay: as above; settings: 72 h
[14] = tested on: normal primary NK cells, pool 3 (3 donors) (IL-2 2.5 ng/mL); assay: as above; settings: 72 h
[15] = tested on: normal NK cells expanded with K562-aAPC; assay: drug sensitivity score (DSS) (DSS units); higher = more sensitive; extreme values may be limits of the assay; settings: 72 h; IL-2 2.5 ng/mL
Procedure: as §1

[16] = tested on: DERL-7 (IL-2 2.5 ng/mL); assay: as above; settings: 72 h
[17] = tested on: IMC-1 (IL-2 20 ng/mL); assay: as above; settings: 72 h
[18] = tested on: KAI3 (IL-2 2.5 ng/mL); assay: as above; settings: 72 h
[19] = tested on: KHYG-1 (IL-2 2.5 ng/mL); assay: as above; settings: 72 h
[20] = tested on: NK-92 (IL-2 2.5 ng/mL); assay: as above; settings: 72 h
[21] = tested on: NK-YS (IL-2 2.5 ng/mL); assay: as above; settings: 72 h
[22] = tested on: NKL (IL-2 2.5 ng/mL); assay: as above; settings: 72 h
[23] = tested on: SNK-6 (IL-2 2.5 ng/mL); assay: as above; settings: 72 h
[24] = tested on: YT (IL-2 2.5 ng/mL); assay: as above; settings: 72 h
[25] = tested on: normal primary NK cells, pool 1 (3 donors) (IL-2 2.5 ng/mL); assay: as above; settings: 72 h
[26] = tested on: normal primary NK cells, pool 1 (3 donors), resting (IL-2 0 ng/mL); assay: as above; settings: 72 h
[27] = tested on: normal primary NK cells, pool 2 (3 donors) (IL-2 2.5 ng/mL); assay: as above; settings: 72 h
[28] = tested on: normal primary NK cells, pool 3 (3 donors) (IL-2 2.5 ng/mL); assay: as above; settings: 72 h

O=c1ncn2nc(Sc3ccc(F)cc3F)ccc2c1-c1c(Cl)cccc1Cl [VX 745] (max concentration tested 10000 nM)
percent inhibition of viability [%]
Settings | 1 nM | 10 nM | 100 nM | 1000 nM | 10000 nM
[1] | -6.57 | -6.69 | -2.69 | 10.6 | 7.59
[2] | 0.51 | 2.58 | 3.17 | -1.44 | 23.6
[3] | -8.82 | -3.76 | -6.12 | 4.33 | 24.7
[4] | 3.09 | 5.9 | 15.3 | 25.4 | 59.7
[5] | -5.86 | -3.96 | -4.73 | 1.64 | 25
[6] | -11.3 | -20.3 | -9.85 | 11 | 37.8
[7] | -7.93 | -3.47 | 3.09 | 15.2 | 47.7
[8] | -15.3 | -9.23 | 3.92 | 36 | 58.3
[9] | -5.31 | -15.8 | -5.14 | 3.14 | 26.2
[10] | -3.02 | -3.06 | -2.2 | 8.23 | 29.8
[11] | 1.17 | 8.88 | 0.28 | 10.7 | 23.3
[12] | 13.8 | 12.2 | 18.8 | 9.48 | 37.9
[13] | -5.75 | -3.08 | 5.63 | 1.25 | 19.1
[14] | -1.25 | -5.79 | 8.52 | -4.71 | 13.8

Settings | drug sensitivity score
[15] | 0.12
[16] | 0.75
[17] | 1.58
[18] | 6.91
[19] | 1.17
[20] | 3.48
[21] | 4.52
[22] | 7.53
[23] | 1.52
[24] | 2.49
[25] | 1.96
[26] | 5.57
[27] | 0.67
[28] | 0.07

CCc1c(C(=O)C(N)=O)c2c(OCC(=O)O)cccc2n1Cc1ccccc1 [Varespladib] (max concentration tested 10000 nM)
percent inhibition of viability [%]
Settings | 1 nM | 10 nM | 100 nM | 1000 nM | 10000 nM
[1] | -11.2 | -11.6 | -12.4 | 3.91 | 4.13
[2] | -6.07 | 2.76 | -0.45 | -1.82 | -5.52
[3] | -6.89 | -8.73 | -5.72 | -2.45 | -3.95
[4] | -1.85 | -2.11 | -10.8 | -0.18 | 21.5
[5] | -3.76 | -11.3 | -0.03 | 8.53 | 2.8
[6] | -21.4 | -19.5 | -14.8 | -0.75 | 31.5
[7] | -2.2 | -6.12 | -3.85 | 2.05 | 12.8
[8] | -9.5 | -5.06 | -13.2 | 2.87 | -9.38
[9] | -7.52 | -21.8 | -13.8 | -2.84 | 6.58
[10] | -8.21 | -8.83 | -14.4 | -11.3 | 13.2
[11] | -5.21 | -8.55 | 9.76 | 0.64 | 7.95
[12] | -21.1 | -19.8 | 7.01 | 11.6 | 26.9
[13] | -5.85 | -4.05 | 1.84 | 6.26 | 5.5
[14] | -8.31 | -9.39 | -3.85 | -0.09 | 3.01

Settings | drug sensitivity score
[15] | 0
[16] | 0
[17] | 0
[18] | 0.68
[19] | 0
[20] | 1.34
[21] | 0.22
[22] | 0
[23] | 0
[24] | 0.02
[25] | 0
[26] | 2.05
[27] | 0
[28] | 0

C[C@@H]1COC(Nc2ccc3ncnc(Nc4ccc(OCc5nccs5)c(Cl)c4)c3c2)=N1 [Varlitinib] (max concentration tested 10000 nM)
percent inhibition of viability [%]
Settings | 1 nM | 10 nM | 100 nM | 1000 nM | 10000 nM
[1] | -1.48 | 1.48 | 0.78 | 6.23 | 6.06
[2] | 1.37 | -3.89 | -4.97 | -5.43 | -2.66
[3] | -2.91 | 6.3 | 4.06 | 14.6 | 34
[4] | 0.52 | 0.69 | -2.99 | 5.18 | 9.75
[5] | 0.82 | -0.44 | 4.79 | 10.6 | 19.4
[6] | -5.14 | -6.85 | 0.79 | 4.69 | 35.3
[7] | 2.18 | -3.81 | 2.34 | 4.33 | 12.3
[8] | 1.14 | 7.53 | 8.83 | 12.6 | 17.6
[9] | 7.32 | 23.1 | 18.9 | 25.6 | 29.6
[10] | 3.61 | 0.68 | 4.78 | 8.48 | 12.2
[11] | -1.41 | -12.3 | 1.76 | -7.07 | 4.85
[12] | -8.46 | -19.4 | -14.8 | -23.5 | -3.47
[13] | -7.11 | -4.04 | 6.91 | 1.02 | 9.32
[14] | -15.9 | -6.58 | -0.23 | -16.5 | 3.13

Settings | drug sensitivity score
[15] | 0
[16] | 0
[17] | 2.92
[18] | 0
[19] | 1.18
[20] | 2.45
[21] | 0.1
[22] | 1.5
[23] | 8.77
[24] | 0.09
[25] | 0
[26] | 0
[27] | 0
[28] | 0

CCC1=C[C@@H]2CN(C1)Cc1c([nH]c3ccccc13)[C@@](C(=O)OC)(c1cc3c(cc1OC)N(C)[C@H]1[C@@](O)(C(=O)OC)[C@H](OC(C)=O)[C@]4(CC)C=CCN5CC[C@]31[C@@H]54)C2 [Vinorelbine] (max concentration tested 10000 nM)
percent inhibition of viability [%]
Settings | 1 nM | 10 nM | 100 nM | 1000 nM | 10000 nM
[1] | 1.8 | 11.8 | 57.4 | 59.7 | 79
[2] | -3.93 | 85.2 | 98.5 | 98.5 | 100
[3] | -0.83 | 99.3 | 99.7 | 100 | 101
[4] | -0.08 | 44.9 | 58.9 | 70.4 | 70.2
[5] | 2.76 | 57.8 | 97.2 | 103 | 105
[6] | -12.5 | 23.4 | 88.8 | 98.5 | 102
[7] | 10.7 | 66.4 | 64.9 | 84.2 | 90
[8] | 3.63 | 84.8 | 93.6 | 93.9 | 93.2
[9] | 22.5 | 78.3 | 84.4 | 96.7 | 96.5
[10] | 0.44 | 65.8 | 95.2 | 98.7 | 100
[11] | -4.33 | -2.37 | -0.15 | 4.78 | 40.3
[12] | -1.44 | -3.84 | -0.59 | 21.5 | 76.9
[13] | -13.5 | 0.55 | 18.7 | 12.3 | 39.7
[14] | -16.2 | -7.94 | 14.5 | 19.8 | 32.1

Settings | drug sensitivity score
[15] | 20.7
[16] | 40.4
[17] | 42.8
[18] | 27.1
[19] | 37.3
[20] | 31.6
[21] | 33.5
[22] | 39.5
[23] | 40.6
[24] | 38.2
[25] | 2.8
[26] | 7.49
[27] | 3.94
[28] | 4.42

CC[C@@H]1C(=O)N(C)c2cnc(Nc3ccc(C(=O)N[C@H]4CC[C@H](N5CCN(CC6CC6)CC5)CC4)cc3OC)nc2N1C(C)C [Volasertib] (max concentration tested 1000 nM)
percent inhibition of viability [%]
Settings | 0.1 nM | 1 nM | 10 nM | 100 nM | 1000 nM
[1] | 0.48 | -0.94 | -1.6 | 54.3 | 54.2
[2] | 6.13 | 1.89 | 15.1 | 98.3 | 95
[3] | -3.21 | -4.2 | 2.24 | 94 | 93.2
[4] | 2.62 | 2.62 | 15 | 38.7 | 51.1
[5] | -0.67 | -1.62 | 4.85 | 98.4 | 99.2
[6] | -14.8 | -9.97 | 33.1 | 92 | 82.6
[7] | -1.3 | 1.64 | 5.27 | 59 | 51
[8] | -8.73 | -9.25 | -5.94 | 65.4 | 40.5
[9] | 8.84 | 8.4 | 39 | 65.5 | 42.1
[10] | -2.13 | 1.45 | 2.63 | 73.9 | 70.2
[11] | -2.22 | -7 | -3.63 | -0.83 | 28.3
[12] | 8.74 | -8.57 | -4.01 | 0.78 | 16
[13] | -9.16 | -9.48 | -8.67 | -4.83 | 38.6
[14] | -12.7 | -9.54 | -12.6 | -7.36 | 8.33

Settings | drug sensitivity score
[15] | 9.75
[16] | 20.2
[17] | 17.2
[18] | 8.7
[19] | 18.4
[20] | 21.2
[21] | 11.7
[22] | 11.5
[23] | 16.3
[24] | 13.8
[25] | 1.12
[26] | 0.37
[27] | 1.57
[28] | 0
